# In patent publication US10610520B2, “Heterocyclic compound” (Takeda Pharmaceutical Company Limited, priority 2016, dated 2020):
# Biological target: T1, His-hMAGL (recombinant polyhistidine tagged human MAGL protein) (Homo sapiens, UniProt Q99685)
# T1 construct: made in house; host or cells: E. coli BL21(DE3)
# T1 sequence (Q99685 1-303): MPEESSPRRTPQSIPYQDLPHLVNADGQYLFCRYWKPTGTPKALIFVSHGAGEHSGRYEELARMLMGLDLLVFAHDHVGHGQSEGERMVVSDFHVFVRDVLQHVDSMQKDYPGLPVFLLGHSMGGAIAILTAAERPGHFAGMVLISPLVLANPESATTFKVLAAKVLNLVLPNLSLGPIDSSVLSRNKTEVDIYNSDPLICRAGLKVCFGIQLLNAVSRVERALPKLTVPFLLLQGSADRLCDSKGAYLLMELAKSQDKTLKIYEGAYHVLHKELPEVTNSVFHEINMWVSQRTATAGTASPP
# Experiment: Measurement of MAGL inhibitory activity (arachidonic acid production from 2-arachidonylglycerol, RapidFire-mass spectrometry)
# Format: biochemical
# Conditions: MAGL inhibitory rate, test compound 10 μM, 60 min preincubation, 2-arachidonylglycerol substrate
# Procedure, shortened: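 Arachidonic acid formed was quantified by online solid-phase extraction and triple-quadrupole MS in negative SRM mode against a d8 internal standard. Reaction: recombinant His-hMAGL (7.5 ng/mL, pH 7.5 Tris buffer with Triton X-100 and BSA) plus 2-AG (5 μL of 150 μM stock) for 10 min at room temperature, quenched with 2% formic acid. Percent inhibition corrected for enzyme-free background.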
row,Structure (SMILES),inhibition at 10 µM [%]
1,"O=C1CCC2(CN(C(=O)c3sc4ccc(Cl)cc4c3-c3ccccc3)C2)N1 [Example 143, 2-((5-chloro-3-phenyl-1-benzothiophen-2-yl)carbonyl)-2,5-diazaspiro[3.4]octan-6-one]",100
2,"O=C1CCC2(CN(C(=O)c3cc4ccc(OCc5ccc(Cl)cc5Cl)cc4s3)C2)N1 [Example 145, 2-((6-((2,4-dichlorobenzyl)oxy)-1-benzothiophen-2-yl)carbonyl)-2,5-diazaspiro[3.4]octan-6-one]",87
3,"O=C1CCC2(CN(C(=O)c3cc4cccc(Br)c4s3)C2)N1 [Example 146, 2-((7-bromo-1-benzothiophen-2-yl)carbonyl)-2,5-diazaspiro[3.4]octan-6-one]",90
4,"O=C1CCC2(CN(C(=O)c3cc4ccc(Cl)cc4s3)C2)N1 [Example 147, 2-((6-chloro-1-benzothiophen-2-yl)carbonyl)-2,5-diazaspiro[3.4]octan-6-one]",83
5,"O=C1CCC2(CN(C(=O)c3cc4cc(OCc5ccc(Cl)cc5Cl)ccc4s3)C2)N1 [Example 149, 2-((5-((2,4-dichlorobenzyl)oxy)-1-benzothiophen-2-yl)carbonyl)-2,5-diazaspiro[3.4]octan-6-one]",83
6,"O=C1CCC2(CN(C(=O)c3cc4cc(-c5ccc(Cl)cc5)ccc4s3)C2)N1 [Example 150, 2-((5-(4-chlorophenyl)-1-benzothiophen-2-yl)carbonyl)-2,5-diazaspiro[3.4]octan-6-one]",83
7,"Cc1c(C(=O)N2CC3(CCC(=O)N3)C2)sc2ccc([N+](=O)[O-])cc12 [Example 151, 2-((3-methyl-5-nitro-1-benzothiophen-2-yl)carbonyl)-2,5-diazaspiro[3.4]octan-6-one]",93
8,"COc1ccc2sc(C(=O)N3CC4(CCC(=O)N4)C3)c(Br)c2c1 [Example 152, 2-((3-bromo-5-methoxy-1-benzothiophen-2-yl)carbonyl)-2,5-diazaspiro[3.4]octan-6-one]",100
9,"O=C1CCC2(CN(C(=O)c3cc4ccc(-c5ccc(Cl)cc5)cc4o3)C2)N1 [Example 169, 2-((6-(4-chlorophenyl)-1-benzofuran-2-yl)carbonyl)-2,5-diazaspiro[3.4]octan-6-one]",80
10,"O=C1CCC2(CN(C(=O)c3ccc(-c4cccc(OCC(F)(F)F)c4)cc3)C2)N1 [Example 170, 2-((3′-(2,2,2-trifluoroethoxy)biphenyl-4-yl)carbonyl)-2,5-diazaspiro[3.4]octan-6-one]",99
11,"O=C1CCC2(CN(C(=O)c3ccc(-c4cccc(OCC5CC5)c4)cc3)C2)N1 [Example 171, 2-((3′-(cyclopropylmethoxy)biphenyl-4-yl)carbonyl)-2,5-diazaspiro[3.4]octan-6-one]",98
12,"O=C1CCC2(CN(C(=O)c3ccc(-c4ccccc4)cc3OC(F)(F)F)C2)N1 [Example 172, 2-((3-(trifluoromethoxy)biphenyl-4-yl)carbonyl)-2,5-diazaspiro[3.4]octan-6-one]",88
13,"O=C1CCC2(CN(C(=O)[C@H]3CC[C@H](c4ccc(O)cc4)CC3)C2)N1 [Example 173, 2-((trans-4-(4-hydroxyphenyl)cyclohexyl)carbonyl)-2,5-diazaspiro[3.4]octan-6-one]",92
14,"O=C1CCC2(CN(C(=O)c3ccc4scc(-c5ccc(F)cc5)c4c3)C2)N1 [Example 175, 2-((3-(4-fluorophenyl)-1-benzothiophen-5-yl)carbonyl)-2,5-diazaspiro[3.4]octan-6-one]",88
15,"O=C1CCC2(CN(C(=O)c3sc4cc(OC(F)(F)F)ccc4c3Cl)C2)N1 [Example 176, 2-((3-chloro-6-(trifluoromethoxy)-1-benzothiophen-2-yl)carbonyl)-2,5-diazaspiro[3.4]octan-6-one]",99
16,"O=C1CCC2(CN(C(=O)c3sc(-c4cccc(C(F)(F)F)c4)cc3Cl)C2)N1 [Example 177, 2-((3-chloro-5-(3-(trifluoromethyl)phenyl)-2-thienyl)carbonyl)-2,5-diazaspiro[3.4]octan-6-one]",98
17,"O=C1CCC2(CN(C(=O)c3sc(-c4cccc(OCC(F)(F)F)c4)cc3Cl)C2)N1 [Example 178, 2-((3-chloro-5-(3-(2,2,2-trifluoroethoxy)phenyl)-2-thienyl)carbonyl)-2,5-diazaspiro[3.4]octan-6-one]",100
18,"O=C1CCC2(CN(C(=O)c3sc4cc(C5=CCC(F)(F)CC5)ccc4c3Cl)C2)N1 [Example 179, 2-((3-chloro-6-(4,4-difluorocyclohex-1-en-1-yl)-1-benzothiophen-2-yl)carbonyl)-2,5-diazaspiro[3.4]octan-6-one]",100

row,Structure (SMILES),inhibition at 10 µM [%]
1,"O=C1CCC2(CN(C(=O)c3sc(-c4ccccc4C(F)(F)F)cc3Cl)C2)N1 [Example 180, 2-((3-chloro-5-(2-(trifluoromethyl)phenyl)-2-thienyl)carbonyl)-2,5-diazaspiro[3.4]octan-6-one]",87
2,"O=C1CCC2(CN(C(=O)c3sc(-c4cccc(OCC5CC5)c4)cc3Cl)C2)N1 [Example 182, 2-((3-chloro-5-(3-(cyclopropylmethoxy)phenyl)-2-thienyl)carbonyl)-2,5-diazaspiro[3.4]octan-6-one]",98
3,"Cc1ccc(-c2ccc3c(Cl)c(C(=O)N4CC5(CCC(=O)N5)C4)sc3c2)cc1 [Example 184, 2-((3-chloro-6-(4-methylphenyl)-1-benzothiophen-2-yl)carbonyl)-2,5-diazaspiro[3.4]octan-6-one]",99
4,"Cc1ccccc1-c1ccc2c(Cl)c(C(=O)N3CC4(CCC(=O)N4)C3)sc2c1 [Example 185, 2-((3-chloro-6-(2-methylphenyl)-1-benzothiophen-2-yl)carbonyl)-2,5-diazaspiro[3.4]octan-6-one]",99
5,"Cc1cccc(-c2ccc3c(Cl)c(C(=O)N4CC5(CCC(=O)N5)C4)sc3c2)c1 [Example 186, 2-((3-chloro-6-(3-methylphenyl)-1-benzothiophen-2-yl)carbonyl)-2,5-diazaspiro[3.4]octan-6-one]",101
6,"CC(C)c1ccc(-c2ccc3c(Cl)c(C(=O)N4CC5(CCC(=O)N5)C4)sc3c2)cc1 [Example 187, 2-((3-chloro-6-(4-isopropylphenyl)-1-benzothiophen-2-yl)carbonyl)-2,5-diazaspiro[3.4]octan-6-one]",94
7,"CC(C)c1cccc(-c2ccc3c(Cl)c(C(=O)N4CC5(CCC(=O)N5)C4)sc3c2)c1 [Example 188, 2-((3-chloro-6-(3-isopropylphenyl)-1-benzothiophen-2-yl)carbonyl)-2,5-diazaspiro[3.4]octan-6-one]",99
8,"CC(C)c1ccccc1-c1ccc2c(Cl)c(C(=O)N3CC4(CCC(=O)N4)C3)sc2c1 [Example 189, 2-((3-chloro-6-(2-isopropylphenyl)-1-benzothiophen-2-yl)carbonyl)-2,5-diazaspiro[3.4]octan-6-one]",100
9,"O=C1CCC2(CN(C(=O)c3sc4cc(-c5cccc(Cl)c5)ccc4c3Cl)C2)N1 [Example 190, 2-((3-chloro-6-(3-chlorophenyl)-1-benzothiophen-2-yl)carbonyl)-2,5-diazaspiro[3.4]octan-6-one]",99
10,"O=C1CCC2(CN(C(=O)c3sc4cc(-c5ccc(Cl)cc5)ccc4c3Cl)C2)N1 [Example 191, 2-((3-chloro-6-(4-chlorophenyl)-1-benzothiophen-2-yl)carbonyl)-2,5-diazaspiro[3.4]octan-6-one]",97
11,"O=C1CCC2(CN(C(=O)c3sc4cc(-c5ccccc5Cl)ccc4c3Cl)C2)N1 [Example 192, 2-((3-chloro-6-(2-chlorophenyl)-1-benzothiophen-2-yl)carbonyl)-2,5-diazaspiro[3.4]octan-6-one]",100
12,"COc1ccc(-c2ccc3c(Cl)c(C(=O)N4CC5(CCC(=O)N5)C4)sc3c2)cc1 [Example 193, 2-((3-chloro-6-(4-methoxyphenyl)-1-benzothiophen-2-yl)carbonyl)-2,5-diazaspiro[3.4]octan-6-one]",100
13,"COc1cccc(-c2ccc3c(Cl)c(C(=O)N4CC5(CCC(=O)N5)C4)sc3c2)c1 [Example 194, 2-((3-chloro-6-(3-methoxyphenyl)-1-benzothiophen-2-yl)carbonyl)-2,5-diazaspiro[3.4]octan-6-one]",100
14,"COc1ccccc1-c1ccc2c(Cl)c(C(=O)N3CC4(CCC(=O)N4)C3)sc2c1 [Example 195, 2-((3-chloro-6-(2-methoxyphenyl)-1-benzothiophen-2-yl)carbonyl)-2,5-diazaspiro[3.4]octan-6-one]",100
15,"O=C1CCC2(CN(C(=O)c3sc4cc(-c5cccc(C(F)(F)F)c5)ccc4c3Cl)C2)N1 [Example 196, 2-((3-chloro-6-(3-(trifluoromethyl)phenyl)-1-benzothiophen-2-yl)carbonyl)-2,5-diazaspiro[3.4]octan-6-one]",99
16,"O=C1CCC2(CN(C(=O)c3sc4cc(-c5ccc(C(F)(F)F)cc5)ccc4c3Cl)C2)N1 [Example 197, 2-((3-chloro-6-(4-(trifluoromethyl)phenyl)-1-benzothiophen-2-yl)carbonyl)-2,5-diazaspiro[3.4]octan-6-one]",90
17,"O=C1CCC2(CN(C(=O)c3sc4cc(-c5ccccc5OC(F)(F)F)ccc4c3Cl)C2)N1 [Example 199, 2-((3-chloro-6-(2-(trifluoromethoxy)phenyl)-1-benzothiophen-2-yl)carbonyl)-2,5-diazaspiro[3.4]octan-6-one]",100
